Test results reported in ChEMBL document CHEMBL3885881, “DrugMatrix”.

Organism: Rattus norvegicus
Test: DrugMatrix - Regimen: Daily Repeat
Type: toxicity, organism-based, Sprague-Dawley
Design: regimen Daily Repeat, gender Male, age 6-8 weeks
Details: in vivo, po, route oral GAVAGE, […]; for ABSOLUTE BASOPHIL / ABSOLUTE EOSINOPHIL / ABSOLUTE LYMPHOCYTE / ABSOLUTE MONOCYTE / ABSOLUTE SEGMENTED NEUTROPHIL / BASOPHIL / EOSINOPHIL / ERYTHROCYTE COUNT / HEMATOCRIT / HEMOGLOBIN / LEUKOCYTE COUNT / LYMPHOCYTE / MEAN CORPUSCULAR HEMOGLOBIN / MEAN CORPUSCULAR HEMOGLOBIN CONCENTRATION / MEAN CORPUSCULAR VOLUME / MONOCYTE / NEUTROPHIL / NUCLEATED RED BLOOD CELLS / PLATELET COUNT: tissue Blood; for ALANINE AMINOTRANSFERASE / ALBUMIN / ALKALINE PHOSPHATASE / ASPARTATE AMINOTRANSFERASE / BLOOD UREA NITROGEN / CARBON DIOXIDE / CHLORIDE / CHOLESTEROL / CREATINE PHOSPHOKINASE / CREATININE / GLUCOSE / LACTATE DEHYDROGENASE / LIPASE / PHOSPHORUS / POTASSIUM / SODIUM / TOTAL BILIRUBIN / TOTAL PROTEIN / URIC ACID: tissue Plasma
[1] = 0 mg/kg, 72 h, dose level Control, time 3 day
[2] = 0 mg/kg, 120 h, dose level Control, time 5 day
[3] = 2 mg/kg, 72 h, dose level High, time 3 day

SMILES: COc1ccc2c(c1)c(CC(=O)OCC(=O)O)c(C)n2C(=O)c1ccc(Cl)cc1 [ACEMETACIN]
- ABSOLUTE BASOPHIL [1]: 0 CELLS/uL
- ABSOLUTE EOSINOPHIL [1]: 138.5 CELLS/uL
- ABSOLUTE LYMPHOCYTE [1]: 13978.67 CELLS/uL
- ABSOLUTE MONOCYTE [1]: 391 CELLS/uL
- ABSOLUTE SEGMENTED NEUTROPHIL [1]: 1608.5 CELLS/uL
- BASOPHIL [1]: 0%
- EOSINOPHIL [1]: 1%
- ERYTHROCYTE COUNT [1]: 5.8 x10E6/uL
- HEMATOCRIT [1]: 36.22%
- HEMOGLOBIN [1]: 13.65 G/DL
- LEUKOCYTE COUNT [1]: 16.12 x10E3/uL
- LYMPHOCYTE [1]: 86.67%
- MEAN CORPUSCULAR HEMOGLOBIN [1]: 23.58 pg
- MEAN CORPUSCULAR HEMOGLOBIN CONCENTRATION [1]: 37.72 G/DL
- MEAN CORPUSCULAR VOLUME [1]: 62.52 fL
- MONOCYTE [1]: 2.5%
- NEUTROPHIL [1]: 9.83%
- NUCLEATED RED BLOOD CELLS [1]: 0 /100WBC
- PLATELET COUNT [1]: 1214.17 x10E3/uL
- ALANINE AMINOTRANSFERASE [1]: 59.5 u/L
- ALBUMIN [1]: 4.1 G/DL
- ALKALINE PHOSPHATASE [1]: 393.83 u/L
- ASPARTATE AMINOTRANSFERASE [1]: 87.83 u/L
- BLOOD UREA NITROGEN [1]: 16.33 mg/dL
- CARBON DIOXIDE [1]: 28.17 mmol/L
- CHLORIDE [1]: 100.83 MEQ/L
- CHOLESTEROL [1]: 73.33 mg/dL
- CREATINE PHOSPHOKINASE [1]: 398 u/L
- CREATININE [1]: 0.2 mg/dL
- GLUCOSE [1]: 152.67 mg/dL
- LACTATE DEHYDROGENASE [1]: 501.5 u/L
- LIPASE [1]: 9.5 u/L
- PHOSPHORUS [1]: 10.77 mg/dL
- POTASSIUM [1]: 6.44 MEQ/L
- SODIUM [1]: 143.4 MEQ/L
- TOTAL BILIRUBIN [1]: 0.17 mg/dL
- TOTAL PROTEIN [1]: 5.92 G/DL
- URIC ACID [1]: 1.68 mg/dL
- ABSOLUTE BASOPHIL [2]: 0 CELLS/uL
- ABSOLUTE EOSINOPHIL [2]: 183.33 CELLS/uL
- ABSOLUTE LYMPHOCYTE [2]: 14952.83 CELLS/uL
- ABSOLUTE MONOCYTE [2]: 238.5 CELLS/uL
- ABSOLUTE SEGMENTED NEUTROPHIL [2]: 1642 CELLS/uL
- BASOPHIL [2]: 0%
- EOSINOPHIL [2]: 1%
- ERYTHROCYTE COUNT [2]: 5.89 x10E6/uL
- HEMATOCRIT [2]: 36.13%
- HEMOGLOBIN [2]: 13.37 G/DL
- LEUKOCYTE COUNT [2]: 17.02 x10E3/uL
- LYMPHOCYTE [2]: 87.17%
- MEAN CORPUSCULAR HEMOGLOBIN [2]: 22.73 pg
- MEAN CORPUSCULAR HEMOGLOBIN CONCENTRATION [2]: 37.02 G/DL
- MEAN CORPUSCULAR VOLUME [2]: 61.45 fL
- MONOCYTE [2]: 1.5%
- NEUTROPHIL [2]: 10.33%
- NUCLEATED RED BLOOD CELLS [2]: 0 /100WBC
- PLATELET COUNT [2]: 1183.5 x10E3/uL
- ALANINE AMINOTRANSFERASE [2]: 54.83 u/L
- ALBUMIN [2]: 4.28 G/DL
- ALKALINE PHOSPHATASE [2]: 363.17 u/L
- ASPARTATE AMINOTRANSFERASE [2]: 96.83 u/L
- BLOOD UREA NITROGEN [2]: 15.67 mg/dL
- CARBON DIOXIDE [2]: 26.17 mmol/L
- CHLORIDE [2]: 102.67 MEQ/L
- CHOLESTEROL [2]: 63.67 mg/dL
- CREATINE PHOSPHOKINASE [2]: 594.33 u/L
- CREATININE [2]: 0.2 mg/dL
- GLUCOSE [2]: 182.33 mg/dL
- LACTATE DEHYDROGENASE [2]: 656.5 u/L
- LIPASE [2]: 9.33 u/L
- PHOSPHORUS [2]: 11.7 mg/dL
- POTASSIUM [2]: 5.92 MEQ/L
- SODIUM [2]: 142.62 MEQ/L
- TOTAL BILIRUBIN [2]: 0.13 mg/dL
- TOTAL PROTEIN [2]: 5.85 G/DL
- URIC ACID [2]: 1.8 mg/dL
- ABSOLUTE BASOPHIL [3]: 0 CELLS/uL
- ABSOLUTE EOSINOPHIL [3]: 380 CELLS/uL
- ABSOLUTE LYMPHOCYTE [3]: 13622 CELLS/uL
- ABSOLUTE MONOCYTE [3]: 500 CELLS/uL
- ABSOLUTE SEGMENTED NEUTROPHIL [3]: 2164.67 CELLS/uL
- BASOPHIL [3]: 0%
- EOSINOPHIL [3]: 2.33%
- ERYTHROCYTE COUNT [3]: 5.07 x10E6/uL
- HEMATOCRIT [3]: 32.77%
- HEMOGLOBIN [3]: 12.63 G/DL
- LEUKOCYTE COUNT [3]: 16.67 x10E3/uL
- LYMPHOCYTE [3]: 81.67%
- MEAN CORPUSCULAR HEMOGLOBIN [3]: 24.97 pg
- MEAN CORPUSCULAR HEMOGLOBIN CONCENTRATION [3]: 38.57 G/DL
- MEAN CORPUSCULAR VOLUME [3]: 64.77 fL
- MONOCYTE [3]: 3%
- NEUTROPHIL [3]: 13%
- NUCLEATED RED BLOOD CELLS [3]: 0.33 /100WBC
- PLATELET COUNT [3]: 1026.67 x10E3/uL
- ALANINE AMINOTRANSFERASE [3]: 66.67 u/L
- ALBUMIN [3]: 4.07 G/DL
- ALKALINE PHOSPHATASE [3]: 414.67 u/L
- ASPARTATE AMINOTRANSFERASE [3]: 86 u/L
- BLOOD UREA NITROGEN [3]: 15 mg/dL
- CARBON DIOXIDE [3]: 28.67 mmol/L
- CHLORIDE [3]: 101.67 MEQ/L
- CHOLESTEROL [3]: 68 mg/dL
- CREATINE PHOSPHOKINASE [3]: 297.67 u/L
- CREATININE [3]: 0.19 mg/dL
- GLUCOSE [3]: 146.67 mg/dL
- LACTATE DEHYDROGENASE [3]: 197.67 u/L
- LIPASE [3]: 9.33 u/L
- PHOSPHORUS [3]: 10.4 mg/dL
- POTASSIUM [3]: 6.36 MEQ/L
- SODIUM [3]: 141.2 MEQ/L
- TOTAL BILIRUBIN [3]: 0.17 mg/dL
- TOTAL PROTEIN [3]: 5.47 G/DL
- URIC ACID [3]: 1.13 mg/dL
